Experimental data from the NIST ThermoML archive (doi:10.1016/j.jct.2016.03.035).
“And” between values parts separate entries of the source, which are not always exact repeats. Identical values can stand only once.

Assay: xn = mol fraction of the nth substance listed
Conditions: Gas, Buoyancy - hydrostatic balance with magnetic suspension - two sinkers

C [methane] + CCC
Conditions | mass density
273.15 K, 931.05 kPa, x1 = 0.5069 | 13.4744 kg/m3
273.15 K, 971.34 kPa, x1 = 0.5069 | 14.1245 kg/m3
273.15 K, 971.91 kPa, x1 = 0.5069 | 14.1339 kg/m3
273.15 K, 972.48 kPa, x1 = 0.5069 | 14.1428 kg/m3
273.15 K, 980.94 kPa, x1 = 0.5069 | 14.2794 kg/m3
273.15 K, 986.21 kPa, x1 = 0.5069 | 14.3656 kg/m3
273.15 K, 991.45 kPa, x1 = 0.5069 | 14.4504 kg/m3
273.15 K, 1009.5 kPa, x1 = 0.5069 | 14.7466 kg/m3 and 14.7469 kg/m3
273.15 K, 1009.6 kPa, x1 = 0.5069 | 14.7472 kg/m3
273.15 K, 1015.4 kPa, x1 = 0.5069 | 14.8425 kg/m3
273.15 K, 1015.5 kPa, x1 = 0.5069 | 14.8423 kg/m3
273.15 K, 1299.2 kPa, x1 = 0.7498 | 14.1894 kg/m3
273.15 K, 1700.4 kPa, x1 = 0.7498 | 19.0431 kg/m3 and 19.0434 kg/m3
273.15 K, 1999 kPa, x1 = 0.7498 | 22.8336 kg/m3
273.15 K, 1999.7 kPa, x1 = 0.7498 | 22.843 kg/m3
273.15 K, 2000.5 kPa, x1 = 0.7498 | 22.8522 kg/m3
273.15 K, 2295.4 kPa, x1 = 0.7498 | 26.7552 kg/m3
273.15 K, 2297.1 kPa, x1 = 0.7498 | 26.7787 kg/m3
273.15 K, 2297.8 kPa, x1 = 0.7498 | 26.7892 kg/m3
273.15 K, 2309.7 kPa, x1 = 0.7498 | 26.9494 kg/m3
273.15 K, 2310.5 kPa, x1 = 0.7498 | 26.9603 kg/m3
273.15 K, 2311.3 kPa, x1 = 0.7498 | 26.971 kg/m3
273.16 K, 500.9 kPa, x1 = 0.7498 | 5.2231 kg/m3
273.16 K, 1299.2 kPa, x1 = 0.7498 | 14.1894 kg/m3
274.02 K, 674.01 kPa, x1 = 0.2658 | 12.0842 kg/m3
274.13 K, 674.35 kPa, x1 = 0.2658 | 12.084 kg/m3
274.25 K, 674.71 kPa, x1 = 0.2658 | 12.0838 kg/m3
274.37 K, 675.08 kPa, x1 = 0.2658 | 12.0836 kg/m3
274.5 K, 675.47 kPa, x1 = 0.2658 | 12.0837 kg/m3
274.64 K, 675.87 kPa, x1 = 0.2658 | 12.0831 kg/m3
274.78 K, 676.29 kPa, x1 = 0.2658 | 12.0823 kg/m3
274.93 K, 676.74 kPa, x1 = 0.2658 | 12.0821 kg/m3
275.09 K, 677.21 kPa, x1 = 0.2658 | 12.0819 kg/m3
275.26 K, 677.71 kPa, x1 = 0.2658 | 12.0812 kg/m3
275.43 K, 678.23 kPa, x1 = 0.2658 | 12.0807 kg/m3
275.61 K, 678.78 kPa, x1 = 0.2658 | 12.0804 kg/m3
275.81 K, 679.35 kPa, x1 = 0.2658 | 12.0795 kg/m3
276.01 K, 679.96 kPa, x1 = 0.2658 | 12.0795 kg/m3
276.22 K, 680.58 kPa, x1 = 0.2658 | 12.0783 kg/m3
276.44 K, 681.24 kPa, x1 = 0.2658 | 12.0781 kg/m3
276.67 K, 681.92 kPa, x1 = 0.2658 | 12.0776 kg/m3
276.89 K, 682.58 kPa, x1 = 0.2658 | 12.0781 kg/m3
277.08 K, 683.2 kPa, x1 = 0.2658 | 12.0796 kg/m3
277.2 K, 683.7 kPa, x1 = 0.2658 | 12.0865 kg/m3
293.14 K, 149.9 kPa, x1 = 0.2658 | 2.2917 kg/m3 and 2.2913 kg/m3 and 2.2914 kg/m3
293.14 K, 205.57 kPa, x1 = 0.5069 | 2.5567 kg/m3 and 2.5566 kg/m3
293.14 K, 258.04 kPa, x1 = 0.2658 | 3.9962 kg/m3
293.14 K, 355.08 kPa, x1 = 0.2658 | 5.5657 kg/m3
293.14 K, 393.87 kPa, x1 = 0.5069 | 4.9714 kg/m3
293.14 K, 469.3 kPa, x1 = 0.2658 | 7.4654 kg/m3 and 7.465 kg/m3
293.14 K, 568.75 kPa, x1 = 0.2658 | 9.168 kg/m3 and 9.1681 kg/m3
293.14 K, 613.82 kPa, x1 = 0.5069 | 7.8848 kg/m3
293.14 K, 655.64 kPa, x1 = 0.2658 | 10.6962 kg/m3
293.14 K, 955.23 kPa, x1 = 0.2658 | 16.2976 kg/m3
293.14 K, 1006.2 kPa, x1 = 0.5069 | 13.3635 kg/m3 and 13.3634 kg/m3
293.14 K, 1056.3 kPa, x1 = 0.2658 | 18.3228 kg/m3 and 18.3227 kg/m3 and 18.3219 kg/m3
293.14 K, 1105.6 kPa, x1 = 0.2658 | 19.3403 kg/m3
293.14 K, 1105.7 kPa, x1 = 0.2658 | 19.3405 kg/m3
293.14 K, 1209.2 kPa, x1 = 0.5069 | 16.3578 kg/m3
293.14 K, 1399.6 kPa, x1 = 0.5069 | 19.2779 kg/m3
293.14 K, 1807.2 kPa, x1 = 0.5069 | 25.9505 kg/m3 and 25.9502 kg/m3
293.15 K, 205.57 kPa, x1 = 0.5069 | 2.5568 kg/m3
293.15 K, 258.04 kPa, x1 = 0.2658 | 3.9961 kg/m3 and 3.9961 kg/m3
293.15 K, 355.08 kPa, x1 = 0.2658 | 5.5657 kg/m3 and 5.5657 kg/m3
293.15 K, 393.88 kPa, x1 = 0.5069 | 4.9713 kg/m3 and 4.9715 kg/m3
293.15 K, 469.3 kPa, x1 = 0.2658 | 7.4651 kg/m3
293.15 K, 568.76 kPa, x1 = 0.2658 | 9.1679 kg/m3
293.15 K, 613.83 kPa, x1 = 0.5069 | 7.885 kg/m3 and 7.8849 kg/m3
293.15 K, 655.65 kPa, x1 = 0.2658 | 10.6965 kg/m3 and 10.6961 kg/m3
293.15 K, 803.71 kPa, x1 = 0.5069 | 10.4888 kg/m3
293.15 K, 803.74 kPa, x1 = 0.5069 | 10.4889 kg/m3
293.15 K, 803.76 kPa, x1 = 0.5069 | 10.4892 kg/m3
293.15 K, 857.4 kPa, x1 = 0.2658 | 14.4071 kg/m3 and 14.4072 kg/m3
293.15 K, 955.25 kPa, x1 = 0.2658 | 16.2978 kg/m3 and 16.2977 kg/m3
293.15 K, 1006.2 kPa, x1 = 0.5069 | 13.3633 kg/m3
293.15 K, 1105.7 kPa, x1 = 0.2658 | 19.3404 kg/m3
293.15 K, 1209.4 kPa, x1 = 0.5069 | 16.361 kg/m3
293.15 K, 1209.7 kPa, x1 = 0.5069 | 16.3642 kg/m3
293.15 K, 1399.6 kPa, x1 = 0.5069 | 19.2776 kg/m3
293.15 K, 1605.7 kPa, x1 = 0.5069 | 22.5751 kg/m3
293.15 K, 1605.8 kPa, x1 = 0.5069 | 22.5767 kg/m3 and 22.5758 kg/m3
293.15 K, 1807.2 kPa, x1 = 0.5069 | 25.9502 kg/m3
294.01 K, 1223.6 kPa, x1 = 0.2658 | 21.7481 kg/m3
294.04 K, 1223.7 kPa, x1 = 0.2658 | 21.7478 kg/m3
294.06 K, 1223.9 kPa, x1 = 0.2658 | 21.7477 kg/m3
294.09 K, 1224 kPa, x1 = 0.2658 | 21.7474 kg/m3
294.12 K, 1224.2 kPa, x1 = 0.2658 | 21.747 kg/m3
294.15 K, 1224.3 kPa, x1 = 0.2658 | 21.7472 kg/m3
294.18 K, 1224.5 kPa, x1 = 0.2658 | 21.7471 kg/m3
294.21 K, 1224.7 kPa, x1 = 0.2658 | 21.7472 kg/m3
294.25 K, 1224.9 kPa, x1 = 0.2658 | 21.7472 kg/m3
294.28 K, 1225.2 kPa, x1 = 0.2658 | 21.747 kg/m3
294.32 K, 1225.4 kPa, x1 = 0.2658 | 21.747 kg/m3
294.37 K, 1225.6 kPa, x1 = 0.2658 | 21.747 kg/m3
294.41 K, 1225.9 kPa, x1 = 0.2658 | 21.7466 kg/m3
294.46 K, 1226.2 kPa, x1 = 0.2658 | 21.7464 kg/m3
294.5 K, 1226.4 kPa, x1 = 0.2658 | 21.7465 kg/m3
294.56 K, 1226.7 kPa, x1 = 0.2658 | 21.7464 kg/m3
294.61 K, 1227 kPa, x1 = 0.2658 | 21.746 kg/m3
294.67 K, 1227.4 kPa, x1 = 0.2658 | 21.7447 kg/m3
294.74 K, 1227.7 kPa, x1 = 0.2658 | 21.744 kg/m3
294.81 K, 1228.1 kPa, x1 = 0.2658 | 21.7437 kg/m3
294.88 K, 1228.5 kPa, x1 = 0.2658 | 21.7435 kg/m3
294.95 K, 1228.9 kPa, x1 = 0.2658 | 21.743 kg/m3
295.11 K, 1229.9 kPa, x1 = 0.2658 | 21.7426 kg/m3
295.2 K, 1230.4 kPa, x1 = 0.2658 | 21.7417 kg/m3
295.29 K, 1230.9 kPa, x1 = 0.2658 | 21.741 kg/m3
295.39 K, 1231.4 kPa, x1 = 0.2658 | 21.7403 kg/m3
295.5 K, 1232 kPa, x1 = 0.2658 | 21.7395 kg/m3
295.6 K, 1232.6 kPa, x1 = 0.2658 | 21.7391 kg/m3
295.72 K, 1233.3 kPa, x1 = 0.2658 | 21.738 kg/m3
295.84 K, 1234 kPa, x1 = 0.2658 | 21.7373 kg/m3
295.97 K, 1234.7 kPa, x1 = 0.2658 | 21.7364 kg/m3
296.1 K, 1235.4 kPa, x1 = 0.2658 | 21.7356 kg/m3
296.24 K, 1236.2 kPa, x1 = 0.2658 | 21.7346 kg/m3
296.39 K, 1237 kPa, x1 = 0.2658 | 21.7335 kg/m3
296.55 K, 1237.9 kPa, x1 = 0.2658 | 21.7324 kg/m3
296.71 K, 1238.8 kPa, x1 = 0.2658 | 21.731 kg/m3
296.88 K, 1239.8 kPa, x1 = 0.2658 | 21.7302 kg/m3
297.07 K, 1240.8 kPa, x1 = 0.2658 | 21.7284 kg/m3
297.26 K, 1241.9 kPa, x1 = 0.2658 | 21.7273 kg/m3
297.45 K, 1243 kPa, x1 = 0.2658 | 21.7257 kg/m3
297.66 K, 1244.1 kPa, x1 = 0.2658 | 21.7254 kg/m3
297.86 K, 1245.3 kPa, x1 = 0.2658 | 21.7253 kg/m3
298.04 K, 1246.4 kPa, x1 = 0.2658 | 21.7265 kg/m3
298.15 K, 1247.3 kPa, x1 = 0.2658 | 21.7319 kg/m3
